Measured values as given in ChEMBL document CHEMBL6096706, “Discovery of WDR5-MLL1 and HDAC Dual-Target Inhibitors for the Treatment of Acute Myeloid Leukemia” (J Med Chem, 2025).

Tests used:
MV4-11 [1] = test: Antiproliferative activity against human MV4-11 cells assessed as growth inhibition at 0.1 uM measured after 72 hrs by CellTiterGlo assay; assay type: functional; settings: read-out: GI
MV4-11 [2] = test: Antiproliferative activity against human MV4-11 cells assessed as growth inhibition at 0.05 uM measured after 72 hrs in presence of 0.5 uM of vorinostat by CellTiterGlo assay; assay type: functional; settings: read-out: GI
MV4-11 [3] = test: Antiproliferative activity against human MV4-11 cells assessed as growth inhibition at 0.1 uM measured after 72 hrs in presence of 0.05 uM of vorinostat by CellTiterGlo assay; assay type: functional; settings: read-out: GI
MV4-11 [4] = test: Antiproliferative activity against human MV4-11 cells assessed as growth inhibition at 0.1 uM measured after 72 hrs in presence of 0.5 uM of vorinostat by CellTiterGlo assay; assay type: functional; settings: read-out: GI
MV4-11 [5] = test: Antiproliferative activity against human MV4-11 cells assessed as growth inhibition at 0.1 uM measured after 72 hrs in presence of 1 uM of vorinostat by CellTiterGlo assay; assay type: functional; settings: read-out: GI
MV4-11 [6] = test: Antiproliferative activity against human MV4-11 cells assessed as growth inhibition at 0.4 uM measured after 72 hrs in presence of 1 uM of vorinostat by CellTiterGlo assay; assay type: functional; settings: read-out: GI
MV4-11 [7] = test: Antiproliferative activity against human MV4-11 cells assessed as growth inhibition at 1 uM measured after 72 hrs in presence of 0.2 uM of vorinostat by CellTiterGlo assay; assay type: functional; settings: read-out: GI
MV4-11 [8] = test: Antiproliferative activity against human MV4-11 cells assessed as growth inhibition at 1 uM measured after 72 hrs in presence of 1 uM of vorinostat by CellTiterGlo assay; assay type: functional; settings: read-out: GI
MV4-11 [9] = test: Induction of apoptosis in human MV4-11 cells assessed as early apoptotic cells at 600 nM incubated for 72 hrs in presence of vorinostat by Annexin V/PI staining based flow cytometry analysis (reference value: 0.76 %); assay type: functional
Histone deacetylase 3 = Histone deacetylase 3 (Homo sapiens, UniProt O15379); test: Inhibition of HDAC3 (unknown origin) by fluorescence based assay
Histone deacetylase 3, sequence (O15379 whole entry): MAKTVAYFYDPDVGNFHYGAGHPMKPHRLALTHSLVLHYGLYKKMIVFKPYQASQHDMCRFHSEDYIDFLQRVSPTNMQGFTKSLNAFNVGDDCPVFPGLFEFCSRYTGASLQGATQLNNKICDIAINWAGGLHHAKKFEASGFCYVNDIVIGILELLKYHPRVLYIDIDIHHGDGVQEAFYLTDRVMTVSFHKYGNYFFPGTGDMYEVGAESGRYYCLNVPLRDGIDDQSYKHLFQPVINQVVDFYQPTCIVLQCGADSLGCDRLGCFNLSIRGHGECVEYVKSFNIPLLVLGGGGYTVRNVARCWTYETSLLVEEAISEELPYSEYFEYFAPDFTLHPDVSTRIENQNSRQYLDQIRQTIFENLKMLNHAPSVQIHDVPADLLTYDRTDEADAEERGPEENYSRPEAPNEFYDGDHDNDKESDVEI

MV4-11 [10] = test: Induction of apoptosis in human MV4-11 cells assessed as viable cells at 50 nmol/L incubated for 72 hrs by Annexin V/PI staining based flow cytometry analysis (reference value: 90.23%); assay type: functional; settings: read-out: Activity
MV4-11 [11] = test: Induction of apoptosis in human MV4-11 cells assessed as early apoptotic cells at 50 nmol/L incubated for 72 hrs by Annexin V/PI staining based flow cytometry analysis (reference value: 4.17 %); assay type: functional
MV4-11 [12] = test: Induction of apoptosis in human MV4-11 cells assessed as early apoptotic cells at 100 nmol/L incubated for 72 hrs by Annexin V/PI staining based flow cytometry analysis (reference value: 4.17 %); assay type: functional
[13] = Toxicity in mouse implanted in human MV4-11 cells assessed as lung damage at 10 to 30 mg/kg, ip administered daily for 17 days by H and E staining based analysis; assay type: organism-based; settings: in vivo, 408 h, dose 10-30 mg/kg, time 17 day
[14] = Toxicity in mouse implanted in human MV4-11 cells assessed as kidney damage at 10 to 30 mg/kg, ip administered daily for 17 days by H and E staining based analysis; assay type: organism-based; settings: in vivo, 408 h, dose 10-30 mg/kg, time 17 day

SMILES | inhibition of growth at 0.1 µM (MV4-11 [1]) [%] | inhibition of growth at 0.05 µM (MV4-11 [2]) [%] | inhibition of growth at 0.1 µM (MV4-11 [3]) [%] | inhibition of growth at 0.1 µM (MV4-11 [4]) [%] | inhibition of growth at 0.1 µM (MV4-11 [5]) [%] | inhibition of growth at 0.4 µM (MV4-11 [6]) [%] | inhibition of growth at 1 µM (MV4-11 [7]) [%] | inhibition of growth at 1 µM (MV4-11 [8]) [%] | Activity (MV4-11 [9]) [%] | IC50 (Histone deacetylase 3) [µM] | viability at 0.05 µM (MV4-11 [10]) [%] | Activity (MV4-11 [11]) [%] | Activity (MV4-11 [12]) [%] | Activity [13] | Activity [14]
Cc1c(F)c(N)cc(C(=O)Nc2cc(-c3ccc(C(=O)N4CCOCC4)cc3)ccc2N2CCN(C)CC2)c1Cl | 19.4 | 73.2 | 34.4 | 73.6 | 88.1 | 90.8 | 61.6 | 94.9 | 69.5 |  |  |  |  |  | 
Cc1c(F)c(N)cc(C(=O)Nc2cc(-c3ccc(C(=O)NCc4ccc(/C=C/C(=O)NO)cc4)cc3)ccc2N2CCN(C)CC2)c1Cl |  |  |  |  |  |  |  |  |  | 0.296 | 75.7 | 11.03 | 19.42 | Non-toxic | Non-toxic
